Test results taken from patent US20060057104A1, “Methods for stimulating tlr irf3 pathways for inducing anti-microbial, anti-inflammatory and anticancer responses” (THE Regents of the University of California Office of the …, priority 2002, published 2006).

Legend:
[1] = test system: RAW 264.7 murine macrophage cell line; test: Apoptosis by TUNNEL assay in RAW 264.7 cells, laser scanner cytometry; format: cell-based; conditions: RAW 264.7, two 24 h intervals; 10 ng/ml Lipid A or 10 mg/ml poly I:C
Description: The RAW 264.7 murine macrophage cell line was treated for two 24 h intervals with media alone (control), 10 ng/ml Lipid A (Lipid A) or 10 mg/ml poly I:C. In addition, as a positive control for apoptosis, another set of cells was treated with 3% H2O2 for 2 hours. Following fixation and permeablization, apoptosis was measured by the TUNNEL assay using the Death kit (Roche). Apoptotic cells are visualized by an increase in fluorescence (FITC) and detected by laser scanner cytometry (LSC). […] The cell cycle is divided into G1 (red), S-phase (yellow) and G2/M (blue). Thus, TLR3/4 activation promotes apoptosis at all stages of the cell cycle (FIG. 16).

MHV68 = MHV68 replication in BMMs treated with TLR ligands (immunoblot of viral proteins); format: cell-based, Murine gammaherpesvirus 68; conditions: MOI=5, 48 hours, 10, 1 or 0.1 ng/ml lipid A, 100 nM CpG, 10 μg/ml PGN, 1, 0.1 or 0.01 μg/ml poly I:C
Description: (E) BMMs were infected with MHV68 (moi=5) and simultaneously treated with the indicated TLR ligands (100 nM CpG; 10, 1, or 0.1 ng/ml lipid A; 10 μg/ml PGN; or 1, 0.1, or 0.01 μg/ml poly I:C). After 48 hr, cells were harvested and analyzed for MHV68 replication proteins by immunoblotting using rabbit anti-MHV68 antibodies.
Murine gammaherpesvirus 68 (MHV68) was produced and titered as previously described (Wu, T.-T., Tong, L., Rickabaugh, T., Speck, S., and Sun, R. (2001), J. Virol. 75, 9262-9273). For infection of macrophages, cells were simultaneously treated with PAMPs and infected with MHV68 at an MOI of 5. Following an incubation period of 48 hours cells were lysed in Laemmli buffer and 10% of total volume was subjected to SDS-PAGE, transferred to nitrocellulose, and MHV68 proteins detected by western blotting.
BMMs were simultaneously infected with MHV68 (MOI=5) and treated with various TLR ligands (10, 1 or 0.1 ng/ml lipid A, 100 nM CpG, 10 μg/ml PGN or 1, 0.1, or 0.01 μg/ml poly I:C) for 48 hours, and replication of viral proteins was then assayed by western blot analysis. […] This was true whether BMMs were treated with 10 or 20 μg/ml PGN and the inhibition was always considerably weaker than that caused by either 1 ng/ml lipid A or 1 μg/ml poly I:C.

BMMs = test: Q-PCR gene expression in BMMs stimulated with TLR agonists (Example 1); format: cell-based, murine; conditions: for immediate early upregulation of IFNβ, IP10 and RANTES: BMMs, lipid A 1 ng/mL, PGN 10 μg/mL, poly I:C 1 μg/ml, CpG 100 nM, 1 hr
Description: (C) BMM's were stimulated with the following TLR-agonists: lipid A (1 ng/mL), peptidoglycan (PGN) (10 μg/mL), poly I:C (I μg/ml), or CpG (100 nM) for 30 min, and cell extracts were used for an in vitro kinase assay using GST-c-jun as a substrate (upper left), identical simulations were repeated for I hr, and RNA was harvested, and used for Q-PCR analysis.
(A) BMMs were stimulated for the indicated time points with the following TLR-agonists: lipid A (1 ng/ml), PGN (20 μg/ml), poly I:C (1 μg/ml), or CpG (100 nM), and RNA was harvested and used for Q-PCR analysis.
Murine bone marrow-derived macrophages (BMMs) were differentiated from marrow from 6-10 week old C57B/6 mice as previously described (Chin, A. I., Dempsey, P. W., Beuhn, K., Miller, J. F., Xu, Y., and Cheng, G. (2002), Nature 416, 190-194). BMMs were maintained in 1× DMEM, 10% fetal bovine serum, 1% penicillin/streptomycin, and 30% L929 conditioned medium, and purity was assayed to be 94-99% CD11b^+. The RAW 264.7 murine macrophage cell line (ATCC: TIB-71) was maintained in 1× DMEM with 10% fetal bovine serum and 1% penicillin/streptomycin. […]
RNA was isolated for both Northern blotting and quantitative real-time PCR (Q-PCR) using a standard guanidium isothiocyanate method. […] For Q-PCR, RNA was quantitated and 2 μg of RNA was used to make cDNA templates using Superscript II (Invitrogen) according the manufactuors instruction with either oligo-dT or random hexamer as primers. […]
We then investigated the TLR-specificity of gene expression in BMMs using specific agonists for TLR4 (lipid A), TLR2 (peptioglycan), TLR3 (poly I:C) and TLR9 (CpG). In order to account for differences in binding affinity and receptor expression, the concentrations of TLR ligands used for stimulation were titrated to produce roughly equivalent activation of the JNK pathway as determined by GST-c-Jun in vitro kinase assay (FIG. 2C, upper left).

| Substance | increase in apoptotic cells [1] [fold] | inhibition of MHV68 replication (MHV68) | immediate early upregulation of IFNβ, IP10 and RANTES (BMMs) | gene induction in TLR4-null BMMs (BMMs; BMMs from C57BL/10ScCr mice (null mutation in TLR4 gene)) |
| --- | --- | --- | --- | --- |
| poly I:C | 100 | significantly inhibit MHV68 replication in a concentration dependent manner | immediate early upregulation | – |
| lipid A | 10 | significantly inhibit MHV68 replication in a concentration dependent manner | immediate early upregulation | No gene induction |
